The values below come from ChEMBL document CHEMBL4385660, “5-Chloro-2-thiophenyl-1,2,3-triazolylmethyldihydroquinolines as dual inhibitors of Mycobacterium tuberculosis and influenza virus: Synthesis and evaluation” (Bioorg Med Chem Lett, 2019).

Values after ≈ are worked out from the molar mass of the structure shown. A value given as a limit tells only on which side of the number the result lay.

The term MIC denotes the least concentration at which growth counts as inhibited. Low values mean inhibition by little substance, high ones a need for much substance. One may read the IC50 as the concentration needed to halve the response being measured. By CC50 is commonly meant the concentration giving 50% cytotoxicity.

The subject of series [1] is Mycobacterium tuberculosis. The experiment in a line: Antimycobacterial against Mycobacterium tuberculosis H37Rv incubated for 7 days by MABA assay. In kind it is functional. As to conditions: 168 h. A general note: Resazurin is reduced to fluorescent resorufin, in cell work by metabolically active cells.
In another series the test system is Influenza A virus. The series can be described thus: Antiviral activity against Influenza A virus (A/Puerto Rico/8/1934(H1N1)) infected in MDCK cells assessed as reduction in virus titer using cells pre-treated with compound followed by virus infection for 24 hrs by hemagglutination test. In kind it is functional, organism-based.
The nature of series [2]: Selectivity index, ratio of CC50 for cytotoxicity in MDCK cells to IC50 for antiviral activity against Influenza A virus (A/Puerto Rico/8/1934(H1N1)) infected in MDCK cells. Type of series: toxicity, cell-based. The conditions noted are these: dog, read-out: Ratio CC50/IC50.
Series [3] is described as follows: Cytotoxicity in MDCK cells assessed as reduction in cell viability incubated for 48 hrs by MTT assay. Type of series: cell-based, Canis lupus familiaris. As to conditions: dog. In general terms: Tetrazolium assays rely on reduction of a dye to a coloured formazan, in cell work by metabolically active cells.
The test system of series [4] is Mycobacterium tuberculosis. The series can be described thus: Antimycobacterial against Mycobacterium tuberculosis. Type of series: functional.

In series [1], `CC[C@@H](CO)NCCN[C@@H](CC)CO` [ETHAMBUTOL] had an MIC of 3.13 µg/mL (≈ 15.3 µM).
On to `ClC1=C(Cn2cc(-c3cc4ccccc4c4ccccc34)nn2)CCc2nc(-c3cccs3)ccc21`, for which the IC50 in the series with Influenza A virus is greater than 300 µg/mL. Also, the selectivity ratio in series [2] stood at 1. This molecule also showed an MIC in series [1] of 25 µg/mL (≈ 49.5 µM). The CC50 at 48 h in series [3] was greater than 300 µg/mL.
As to `CCC(CC)O[C@@H]1C=C(C(=O)O)C[C@H](N)[C@H]1NC(C)=O` [OSELTAMIVIR CARBOXYLATE], the IC50 in the series on Influenza A virus amounted to 0.06 µg/mL (≈ 0.211 µM). Further, the selectivity ratio in series [2] was greater than 500. Moreover, the CC50 at 48 h in series [3] is greater than 30 µg/mL.
Molecule `CN(C)CCc1ccc(-c2cc3cc(Br)ccc3nc2OCc2cccc3ccccc23)cc1` yielded an MIC in series [4] of 0.43 µg/mL (≈ 0.841 µM).
In the case of `ClC1=C(Cn2cc(-c3ccc(Cl)c(Cl)c3)nn2)CCc2nc(-c3cccs3)ccc21`, the IC50 in the series on Influenza A virus was found to be 26 µg/mL (≈ 54.9 µM). In addition, in series [2], the selectivity ratio turned out to be 12. It took 25 µg/mL (≈ 52.8 µM) to inhibit growth in series [1] (MIC). The CC50 at 48 h in series [3] is greater than 300 µg/mL.
Turning to `CC(C)(C)c1ccc(-c2cn(CC3=C(Cl)c4ccc(-c5cccs5)nc4CC3)nn2)cc1`, the IC50 with Influenza A virus is 64 µg/mL (≈ 139 µM). Moreover, the selectivity ratio in series [2] came to 3. 3.12 µg/mL (≈ 6.77 µM) was the least that counted as inhibitory in series [1] (MIC). The CC50 at 48 h in series [3] was determined as 172 µg/mL (≈ 373 µM).
As to `CC(N)C12CC3CC(CC(C3)C1)C2` (configuration not stated) [RIMANTADINE], the IC50 with Influenza A virus came to 10 µg/mL (≈ 55.8 µM). For the same molecule, the selectivity ratio in series [2] amounted to 6. The CC50 at 48 h in series [3] came to 62 µg/mL (≈ 346 µM).
Turning to `FC(F)(F)Oc1ccc(-c2cn(CC3=C(Cl)c4ccc(-c5cccs5)nc4CC3)nn2)cc1`, in the series with Influenza A virus, the IC50 amounted to 65 µg/mL (≈ 133 µM). Moreover, the selectivity ratio in series [2] stood at 5. In series [1], this molecule had an MIC of 25 µg/mL (≈ 51.1 µM). The CC50 at 48 h in series [3] is greater than 300 µg/mL.
As for `ClC1=C(Cn2cc(C3CC3)nn2)CCc2nc(-c3cccs3)ccc21`, the IC50 in the series on Influenza A virus is greater than 300 µg/mL. Moreover, in series [2], the selectivity ratio stood at 1. Besides, inhibition of growth in series [1] (MIC) required 6.25 µg/mL (≈ 16.9 µM). Also, the CC50 at 48 h in series [3] was greater than 300 µg/mL.
As for `O=C1c2ccccc2C(=O)N1Cc1cn(CC2=C(Cl)c3ccc(-c4cccs4)nc3CC2)nn1`, the IC50 in the series on Influenza A virus amounted to 200 µg/mL (≈ 410 µM). The selectivity ratio in series [2] is 2. In series [1], this molecule gave an MIC of 25 µg/mL (≈ 51.2 µM). In series [3], the CC50 at 48 h was greater than 300 µg/mL.
Molecule `CN(C)Cc1ccc(-c2cc3cc(Br)ccc3nc2OCc2ccncc2)cc1` yielded an MIC in series [4] of 0.43 µg/mL (≈ 0.959 µM).
Take `CCCCCc1cn(CC2=C(Cl)c3ccc(-c4cccs4)nc3CC2)nn1`: the IC50 with Influenza A virus is 17 µg/mL (≈ 42.6 µM). The selectivity ratio in series [2] amounted to 3. Also, 6.25 µg/mL (≈ 15.7 µM) was the least that counted as inhibitory in series [1] (MIC). In addition, the CC50 at 48 h in series [3] amounted to 50 µg/mL (≈ 125 µM).
`O=C(O)c1cn(C2CC2)c2cc(N3CCNCC3)c(F)cc2c1=O` [CIPROFLOXACIN] showed an MIC in series [1] of 1.56 µg/mL (≈ 4.71 µM).
With `FC(F)(F)c1cc(-c2cn(CC3=C(Cl)c4ccc(-c5cccs5)nc4CC3)nn2)cc(C(F)(F)F)c1`, the IC50 in the series with Influenza A virus is greater than 30 µg/mL. In series [2], the selectivity ratio came to 1. Besides, in series [1], the MIC is 25 µg/mL (≈ 46.2 µM). In series [3], the CC50 at 48 h was 35 µg/mL (≈ 64.7 µM).
For `CC(C)(C)c1nn(-c2cc(Cl)cc(Cl)c2OCc2cn(CC3=C(Cl)c4ccc(-c5cccs5)nc4CC3)nn2)c(=O)o1`, the IC50 with Influenza A virus is greater than 300 µg/mL. Further, the selectivity ratio in series [2] was found to be 1. Inhibition of growth in series [1] (MIC) required 25 µg/mL (≈ 38.8 µM). Also, the CC50 at 48 h in series [3] is greater than 300 µg/mL.
Turning to `ClC1=C(Cn2cc(-c3ccsc3)nn2)CCc2nc(-c3cccs3)ccc21`, the IC50 in the series with Influenza A virus was 195 µg/mL (≈ 475 µM). In addition, in series [2], the selectivity ratio worked out at 15. The same molecule gave an MIC in series [1] of 25 µg/mL (≈ 60.8 µM). In series [3], the CC50 at 48 h is greater than 300 µg/mL.
Take `COc1ccc(-c2cn(CC3=C(Cl)c4ccc(-c5cccs5)nc4CC3)nn2)cc1`: the IC50 with Influenza A virus came out at 160 µg/mL (≈ 368 µM). In series [2], the selectivity ratio stood at 2. Besides, the lowest concentration to inhibit growth in series [1] (MIC) was 25 µg/mL (≈ 57.5 µM). The CC50 at 48 h in series [3] was greater than 300 µg/mL.
On to `O=[N+]([O-])c1ccc(-c2cn(CC3=C(Cl)c4ccc(-c5cccs5)nc4CC3)nn2)cc1`, for which, in the series with Influenza A virus, the IC50 was greater than 30 µg/mL. For the same molecule, the selectivity ratio in series [2] was 1. The molecule also showed an MIC in series [1] of 12.5 µg/mL (≈ 27.8 µM). Further, the CC50 at 48 h in series [3] was 40 µg/mL (≈ 88.9 µM).
On to `FC(F)(F)c1ccccc1-c1cn(CC2=C(Cl)c3ccc(-c4cccs4)nc3CC2)nn1`, for which the IC50 in the series with Influenza A virus is 160 µg/mL (≈ 338 µM). Moreover, the selectivity ratio in series [2] was 2. Further, in series [1], the MIC was 12.5 µg/mL (≈ 26.4 µM). In series [3], the CC50 at 48 h is greater than 300 µg/mL.
`NNC(=O)c1ccncc1` [ISONIAZID] came in with an MIC in series [1] of 0.1 µg/mL (≈ 0.729 µM).
Regarding `Fc1ccc(-c2cn(CC3=C(Cl)c4ccc(-c5cccs5)nc4CC3)nn2)c(F)c1`, the IC50 in the series on Influenza A virus stood at 165 µg/mL (≈ 374 µM). The selectivity ratio in series [2] was 1. The MIC in series [1] came to 25 µg/mL (≈ 56.7 µM). Moreover, in series [3], the half-maximal cytotoxic concentration (CC50) at 48 h is 188 µg/mL (≈ 426 µM).
Consider `Fc1ccc(-c2cn(CC3=C(Cl)c4ccc(-c5cccs5)nc4CC3)nn2)cc1`, for which, in the series on Influenza A virus, the IC50 was 80 µg/mL (≈ 189 µM). In addition, the selectivity ratio in series [2] came to 1. For the same molecule, in series [1], inhibition of growth (MIC) required 12.5 µg/mL (≈ 29.6 µM). Besides, the CC50 at 48 h in series [3] came out at 100 µg/mL (≈ 236 µM).
`CO[C@H]1/C=C/O[C@@]2(C)Oc3c(C)c(O)c4c(O)c(c(/C=N/N5CCN(C)CC5)c(O)c4c3C2=O)NC(=O)/C(C)=C\C=C\[C@H](C)[C@H](O)[C@@H](C)[C@@H](O)[C@@H](C)[C@H](OC(C)=O)[C@@H]1C` [RIFAMPIN] displayed an MIC in series [1] of 0.2 µg/mL (≈ 0.243 µM).
